Data taken from patent US20250375419A1, “NOVEL RAS INHIBITORS” (KHR Biotec GmbH, priority 2022, published 2025).

What was measured:
Format in all cases: cell-based
ASPC1 = assay: Soft agar colony formation assay, colonies stained with MTT; conditions: Homo sapiens; ASPC1, growth in soft agar, MTT absorbance 570 nm, 3 independent experiments
Method: (§1) Metabolic activity was quantified using Cell Proliferation Kit I (Roche, Basel, Switzerland). Cells were seeded in 96-well cell culture plates, using 5000 cells per well for NCI-H358 cells. After treatment, 10 μl of MTT solution was added and incubated for 2 h in CO2 incubator. Then 100 μl of solubilization buffer was added to each well and incubated overnight in CO2 incubator. Cell viability, assessed by the amount of metabolized MTT, was quantified by measuring absorbance at 570 nm.
(§2) MTT assay for the growth of different tumour cell lines with RAS mutations in soft agar with Tegaserode maleate.
(§3) NCI-H358, H358, H2122, ASPC-1, HCT-116, T24 and HT1080 cells were used for the soft agar colony formation assay. After the treatment with Tegaserode maleate, the colonies were stained with MTT and the value was quantified by measuring absorbance at 570 nm after solubilization. The results represent mean±SEM from 3 independent experiments.

HCT-116 = assay: as above; conditions: Homo sapiens; HCT-116, growth in soft agar, MTT absorbance 570 nm, 3 independent experiments
Method: as §1, §2, §3

HT1080 = assay: as above; conditions: Homo sapiens, HT-1080; HT1080, growth in soft agar, MTT absorbance 570 nm, 3 independent experiments
Method: as §1, §2, §3

NCI-H2122 = assay: as above; conditions: Homo sapiens; NCI-H2122, growth in soft agar, MTT absorbance 570 nm, 3 independent experiments
Method: as §1, §2, §3

NCI-H358 = assay: as above; conditions: Homo sapiens; NCI-H358, growth in soft agar, MTT absorbance 570 nm, 3 independent experiments
Method: as §1, §2, §3

T24 = assay: as above; conditions: Homo sapiens, T-24; T24, growth in soft agar, MTT absorbance 570 nm, 3 independent experiments
Method: as §1, §2, §3

BaF3 KRAS G12C/Y96D = assay: MTT assay for cell viability in 96 well cell culture plate; conditions: Mus musculus, 48 h treatment
Method: as §1
(§4) FIGS. 3a) und 3b): MTT assay for cell viability in 96 well cell culture plate Cells were treated with compounds for 48 h and cell viability was evaluated by MTT assay. The results shown are mean from 3 independent experiments. DMSO-treated cells were set as 1. The results shown are mean±SEM from 1-3 independent experiments.
(§5) G12C/Y96D mutation is normally seen in patients, who develop resistance to G12C inhibitor. Thus, patients, who are resistant to G12C inhibitors can still be treated with Tegaserode maleate.

BaF3 KRAS G12C = assay: as above; conditions: Mus musculus, 48 h treatment
Method: as §1, §4, §5

KRAS dependent cells = assay: MTT assay for cell viability, KRAS dependent cells (FIG. 3a); conditions: irrespective of the presence of mutation, 48 h
Method: as §4, §5

[1] = tested on: RAS protein of RASOpathie; assay: RASOpathie-Model; MTT assay for cell viability in 96 well cell culture plate; conditions: 48 h treatment
Method: FIG. 4: RASOpathie-Model of Tegaserode maleate; MTT assay for cell viability in 96 well cell culture plate
Cells were treated with Tegaserode maleate for 48 h and cell viability was evaluated by MTT assay. DMSO-treated cells were set as 1. The results shown are mean±SEM from 3 independent experiments.

IC50 (ASPC1): 4.76 µM
IC50 (HCT-116): 3.12 µM
IC50 (HT1080): 2.43 µM
IC50 (NCI-H2122): 3.37 µM
IC50 (NCI-H358): 5.39 µM
IC50 (T24): 11.3 µM
IC50 (BaF3 KRAS G12C/Y96D): 2.86 µM
IC50 (BaF3 KRAS G12C): 10.2 µM
SMILES: CCCCCNC(=N)N/N=C/c1c[nH]c2ccc(OC)cc12.O=C(O)/C=C\C(=O)O [Tegaserode maleate, 2-[(5-Methoxy-1H-indol-3-yl)methylene]-N-pentyl-hydrazinecarboximidamide maleate]
inhibition of KRAS dependent cells (KRAS dependent cells): inhibits KRAS dependent cells irrespective of the presence of mutation
inhibition of RAS protein of RASOpathie (cell viability) [1]: inhibits RAS protein of RASOpathie
